Measurements published in patent publication US8084649B2, “Herbicides” (Syngenta Crop Protection, inc., priority 2007, dated 2011).

Assays:
Type in all cases: in vivo
[1] = system: Alopecurus myosuroides (ALOMY); assay: Post-emergence herbicidal activity, glasshouse pot test; conditions: Alopecurus myosuroides, evaluated after 14 or 15 days, read-out: Post-emergence activity, ALOMY (100=total damage to plant; 0=no damage to plant); for pest or weed control at 500 g/ha: rate 500 g/ha; for pest or weed control at 125 g/ha: rate 125 g/ha
Summary of the method: (§1)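 Post-emergence spray on 10-day-old potted plants (sterilised standard soil, controlled glasshouse conditions); spray solution from technical compound in acetone with Emulsogen EL, N-methylpyrrolidone, dipropylene glycol monomethyl ether and X-77. Rated 14–15 d later, 0 = no damage, 100 = total damage.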

[2] = system: Lolium perenne (LOLPE); assay: as above; conditions: Lolium perenne, evaluated after 14 or 15 days, read-out: Post-emergence activity, LOLPE (100=total damage to plant; 0=no damage to plant); for pest or weed control at 500 g/ha: rate 500 g/ha; for pest or weed control at 125 g/ha: rate 125 g/ha
Summary of the method: as §1

[3] = system: Digitaria sanguinalis (DIGSA); assay: as above; conditions: Digitaria sanguinalis, evaluated after 14 or 15 days, read-out: Post-emergence activity, DIGSA (100=total damage to plant; 0=no damage to plant); for pest or weed control at 500 g/ha: rate 500 g/ha; for pest or weed control at 125 g/ha: rate 125 g/ha
Summary of the method: as §1

[4] = system: Setaria faberi (SETFA); assay: as above; conditions: Setaria faberi, evaluated after 14 or 15 days, read-out: Post-emergence activity, SETFA (100=total damage to plant; 0=no damage to plant); for pest or weed control at 500 g/ha: rate 500 g/ha; for pest or weed control at 125 g/ha: rate 125 g/ha
Summary of the method: as §1

[5] = system: Avena fatua (AVEFA); assay: as above; conditions: evaluated after 14 or 15 days; for pest or weed control at 500 g/ha / pest or weed control at 125 g/ha: Avena fatua, read-out: Post-emergence activity, AVEFA (100=total damage to plant; 0=no damage to plant); for pest or weed control at 125 g/ha: rate 125 g/ha
Summary of the method: as §1

[6] = system: Echinochloa crus-galli (ECHCG); assay: as above; conditions: Echinochloa crus-galli, evaluated after 14 or 15 days, read-out: Post-emergence activity, ECHCG (100=total damage to plant; 0=no damage to plant); for pest or weed control at 500 g/ha: rate 500 g/ha; for pest or weed control at 125 g/ha: rate 125 g/ha
Summary of the method: as §1

[7] = system: Alopecurus myosuroides (ALOMY); assay: Pre-emergence herbicidal activity, glasshouse pot test; conditions: Alopecurus myosuroides, 480 h, rate 500 g/ha, evaluated after 20 days, read-out: Pre-emergence activity, ALOMY (100=total damage to plant; 0=no damage to plant)
Summary of the method: (§2)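 Pre-emergence application: sprayed one day after seeding into pots of sterilised standard soil. After 20 days' growth in a greenhouse, percent damage was scored visually, 0 meaning unharmed and 100 total damage.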

[8] = system: Lolium perenne (LOLPE); assay: as above; conditions: Lolium perenne, 480 h, rate 500 g/ha, evaluated after 20 days, read-out: Pre-emergence activity, LOLPE (100=total damage to plant; 0=no damage to plant)
Summary of the method: as §2

[9] = system: Digitaria sanguinalis (DIGSA); assay: as above; conditions: Digitaria sanguinalis, 480 h, rate 500 g/ha, evaluated after 20 days, read-out: Pre-emergence activity, DIGSA (100=total damage to plant; 0=no damage to plant)
Summary of the method: as §2

[10] = system: Setaria faberi (SETFA); assay: as above; conditions: Setaria faberi, 480 h, rate 500 g/ha, evaluated after 20 days, read-out: Pre-emergence activity, SETFA (100=total damage to plant; 0=no damage to plant)
Summary of the method: as §2

[11] = system: Avena fatua (AVEFA); assay: as above; conditions: Avena fatua, 480 h, rate 500 g/ha, evaluated after 20 days, read-out: Pre-emergence activity, AVEFA (100=total damage to plant; 0=no damage to plant)
Summary of the method: as §2

[12] = system: Echinochloa crus-galli (ECHCG); assay: as above; conditions: Echinochloa crus-galli, 480 h, rate 500 g/ha, evaluated after 20 days, read-out: Pre-emergence activity, ECHCG (100=total damage to plant; 0=no damage to plant)
Summary of the method: as §2

SMILES	pest or weed control at 500 g/ha [1] [%]	pest or weed control at 500 g/ha [2] [%]	pest or weed control at 500 g/ha [3] [%]	pest or weed control at 500 g/ha [4] [%]	pest or weed control at 500 g/ha ([5]; rate 500 g/ha) [%]	pest or weed control at 500 g/ha [6] [%]	pest or weed control at 500 g/ha [7] [%]	pest or weed control at 500 g/ha [8] [%]	pest or weed control at 500 g/ha [9] [%]	pest or weed control at 500 g/ha [10] [%]	pest or weed control at 500 g/ha [11] [%]	pest or weed control at 500 g/ha [12] [%]	pest or weed control at 125 g/ha [1] [%]	pest or weed control at 125 g/ha [2] [%]	pest or weed control at 125 g/ha [3] [%]	pest or weed control at 125 g/ha [4] [%]	pest or weed control at 125 g/ha [5] [%]	pest or weed control at 125 g/ha [6] [%]	Post-emergence activity, AVEFA (100=total damage to plant; 0=no damage to plant) ([5]; rate 500 g/ha)
CCc1cc(C)cc(CC)c1C1=C(O)CC(C2(SC)CCC2)CC1=O (stereo not drawn) [Compound T25]	100	90	100	100	100	80	100	100	100	100	100	100							
CCc1cc(C)cc(C)c1C1=C(O)CC(CCSC)CC1=O (stereo not drawn) [Compound T13]	90	80	100	90	80	90	100	100	100	80	70	80							
C=CCCCCCCCCC(=O)OC1=C(c2c(CC)cc(C)cc2CC)C(=O)CC2(CCOCC2)C1 [Compound P47]							100	100	100	100	100	100	70	50	70	60	60	70	
CCc1cc(C)cc(CC)c1C1=C(O)CC2(CCS(=O)(=O)CC2)CC1=O [Compound T53]							60	90	100	30	80	100	80	70	90	60	80	100	
CCc1cc(C)cc(CC)c1C1=C(OC(=O)C2CCCCC2)CC2(CCOCC2)CC1=O [Compound P12]							100	100	100	100	100	100	80	100	90	90	90	100	
CCCS(=O)(=O)OC1=C(c2c(CC)cc(C)cc2CC)C(=O)CC2(CCOCC2)C1 [Compound P29]							60	60	80	60	60	10	30	10	50	30	0	30	
CCc1cc(C)cc(CC)c1C1=C(OS(=O)(=O)CC(F)(F)F)CC2(CCOCC2)CC1=O [Compound P27]							100	100	100	100	100	100	70	70	70	50	50	70	
CCc1cc(C)cc(CC)c1C1=C(OC(=O)Oc2ccccc2)CC2(CCOCC2)CC1=O [Compound P18]							100	100	100	100	100	80	80	90	70	50	100	100	
CCc1cc(C)cc(CC)c1C1=C(OC(=O)COC)CC2(CCOCC2)CC1=O [Compound P8]							100	100	100	100	90	100	90	90	100	90	100	100	
CCc1cc(CC)c(C2=C(OC(=O)C(C)(C)C)CC3(CCOCC3)CC2=O)c(CC)c1 [Compound P49]	60	50	90	80	10	90	100	100	100	100	60	100							
Cc1cc(C)c(C2=C(O)CC3(CCOCC3)CC2=O)c(C)c1 [Compound T26]	60	50	80	80	10	100	90	90	100	70	20	100							
CCSC(C)CC1CC(=O)C(c2c(C)cc(C)cc2CC)=C(O)C1 (stereo not drawn) [Compound T1]	70	70	90	80	70	90	60	70	70	70	30	100							
CCc1cc(C)cc(CC)c1C1=C(O)CC(CCS(C)(=O)=O)CC1=O (stereo not drawn) [Compound T14]	90	90	100	100		100	90	100	100	100	100	100							90
